From patent EP0526502B1, “PHENOLIC AMINE DEPIGMENTING AND ANTIMELANOMA AGENTS” (The Governors of the University of Alberta, priority 1990, dated 1991)
Several values for one entry are separate records, joined by “and”; a condition that tells them apart may be missing. Identical values can stand only once.

Key:
Mushroom tyrosinase = Mushroom tyrosinase (Agaricus bisporus, UniProt C7FF04); assay: Enzyme kinetics with tyrosinase (substrate disappearance by HPLC, Lineweaver-Burk); format: biochemical; conditions: result in words
Protocol: Mushroom tyrosinase (400 units/mg) and plasma MAO (1000 units/gm) were obtained from Sigma Chemical Co. (St. Louis, MO, USA). A reaction mixture consisted of a substrate of 7 to 8 different concentrations (40 to 500 »M for mushroom tyrosinase and 20 to 200 »M for MAO) and of either mushroom tyrosinase (2.5 »g) or MAO (10 »g) in 1.0 mL of 0.05 M sodium phosphate buffer, pH 6.8 and 7.4 respectively. The reactions were carried out at 37°C in a shaking water bath, and stopped by taking 100 »L of the reaction mixture and adding it to 900 »L of 0.4 M HCLO₄. The disappearance of substrate was followed using HPLC (high pressure liquid chromatography) Km and Vmax values were calculated from the Lineweaver-Burk plots.

B16F10 melanoma = assay: Melanoma-colony formation in the lungs; format: in vivo, mice; conditions: 900 mg/kg i.p. daily for 14 days from day five; lungs excised day 26
Protocol: Murine B16F10 melanoma cell line with a strong metastatic property to form tumour colonies in the lungs was obtained from Dr. Longenecker, Department of Immunology, University of Alberta. Such cell line is well recognized and readily available as reported in Miura et al, supra. The cells were grown in T-75 flasks in dulbecco's MEM available from Gipco Lab Inc., Grand Island, New York, supplemented with 10% fetal calf serum, also obtained from Gipco, penicillin (100 »/ml) and streptomycin (100 »g/ml). The cells were incubated at 37°C in humidified atmosphere of 5% CO₂ in air. The cells were harvested by applying a thin layer of 0.25% trypsin solution in EDTA, washed and resuspended in cold N saline solution. Viable cells were identified by trypan blue dye exclusion and counted. The cell suspension was diluted to the desired concentration. Three groups of mice were studied using a control 4-S-CAP and N-Ac-4-S-CAP as the active agents in the treatment. On day zero, the mice were inoculated via the lateral tail vein with 5 x 10⁴ cells in 0.2 ml of N saline. The test drugs were dissolved in normal saline, sterilized by membrane filtration, and administered in a dose of 300 mg/Kg (4-S-CAP) or 900 mg/Kg (N-Ac-4-S-CAP); starting on day five, the control solution or drug was injected i.p. daily for 14 days. On day 26, the mice were killed by cervical dislocation, their lungs were removed, and the number of melanoma colonies was counted under a dissecting microscope. The results were expressed as percentage reduction in the number of colonies: [a - b/a] x 100, where a = colonies in control group and b = colonies in experimental group.

follicular melanocytes = assay: Depigmentation of new hair after plucking (PTCA/eumelanin content of hair follicles); format: in vivo, C57BL/6J black mice; conditions: for PTCA Content / Depigmentation: 300 mg/kg daily for 14 days, hair harvested day 22; for Depigmentation: 300 mg/kg
Protocol: Breeding pairs of C57BL/6J black mice were purchased from Jackson Laboratory, Bar Harbor, Maine. Female progeny were used in this testing when approximately 8 weeks old and weighing 17 grams.
Black hairs were plucked manually from the back of the mice to initiate new anagen growth and activate follicular melanocytes with increased tyrosinase activity. Thirty mice were randomized into 6 groups of 5 (1 control and 1 for each compound). Starting on day 1, daily for 14 days the agent was injected i.p. or was infiltrated s.c. in an area where hair follicles had been plucked; the dose was 300 mg/kg body weight.
In the same 30 mice, hair follicles were harvested on day 22 (early telogen phase) and their eumelanin content analyzed. Details of the assay, including chemical degration of melanin and high-performance liquid chromatography (HPLC) were as described in Ito et al, "Quantitative Analysis of Eumelanin and Pheomelanin in Hair and Melanosomes" J. Invest. Dermatol 80:268-272, 1983. Briefly, a 10-mg hair sample is homogenized in water at a concentration of 10 mg/ml; the 200-»l homogenate is transferred to a screw-capped test tube, mixed with 1M H₂SO₄ (800 »L) and oxidized with 3% KMnO₄. The product, pyrrole-2,3,5-tricarboxylic acid (PTCA), is analyzed by HPLC with a UVL detector; samples are measured in duplicate. The eumelanin content is expressed as PTCA (ng/mg) against the PCTA content of BALB/c albino mice as control (≦ 10 ng/mg, the background value with our method, in which 1 ng corresponds roughly to a eumelanin content of 50 ng), and the degree of depigmentation is expressed as a percentage: (PTCA content of control sampleminusPTCA content of experimental sample)/(PCTA content of control sample) x 100 [formula] .

melanocytes = assay: Light and electron microscopy of melanocytes in regrowing hair follicles; format: in vivo, mice
Protocol: In six groups of 4 mice (1 control and 1 for each compound) were treated daily with the control or compound injected i.p. The compounds tested were 4-S-CAP, N-Ac-4-S-CAP and α-Me-4-S-CAP. Samples of skin and regrowing hair follicles were excised under brief general anaesthesia on day 10 (late anagen phase), fixed in Karnovsky's solution (2.5% glutaraldehyde and 2.5% paraformaldehyde in 0l1 M cacodylate buffer), and refixed in 1% osmium tetroxide in cadodylate buffer. Tissues were stained en bloc with 1.5% uranyl acetate in o.1 M veronal buffer for 30min, dehydrated in graded ethanol solutions, embedded in epoxy resin, and sectioned with a Potter-Blum ultramicrotome MT II. Sections 1.0 »m thick were stained with methylene blue for light microscopy, thin sections were stained with led citrate for electron microscopy.

Sequence of Mushroom tyrosinase (C7FF04 1-392): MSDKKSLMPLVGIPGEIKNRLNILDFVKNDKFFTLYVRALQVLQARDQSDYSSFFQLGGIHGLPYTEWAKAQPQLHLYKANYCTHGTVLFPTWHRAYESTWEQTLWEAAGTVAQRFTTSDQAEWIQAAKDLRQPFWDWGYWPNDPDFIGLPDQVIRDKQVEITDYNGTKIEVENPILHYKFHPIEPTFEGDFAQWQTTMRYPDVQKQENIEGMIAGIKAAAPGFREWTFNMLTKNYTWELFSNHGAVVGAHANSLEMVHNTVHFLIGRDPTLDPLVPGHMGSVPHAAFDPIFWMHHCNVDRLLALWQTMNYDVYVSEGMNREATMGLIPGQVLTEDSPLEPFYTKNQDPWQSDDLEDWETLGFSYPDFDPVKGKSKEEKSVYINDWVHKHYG

SMILES: CC(=O)NCCSc1ccc(O)cc1 [N-Ac-4-S-CAP, N-ACETYL-4-S-CYSTEAMINYLPHENOL]
- tyrosinase substrate (Mushroom tyrosinase): is also a tyrosinase substrate
- No. of Colonies % control (B16F10 melanoma): 25% and 24.9%
- No. of Colonies per pair of lungs (B16F10 melanoma): 21.5 ± 10.8
- PTCA Content (follicular melanocytes; Route s.c.): 30.8 ± 9.1 ng/mg
- Depigmentation (follicular melanocytes; Route s.c.): 97.2%
- PTCA Content (follicular melanocytes; Route: i.p.): 26.0 ± 10.3 ng/mg
- Depigmentation (follicular melanocytes; Route: i.p.): 97.6%
- visible pigmentation of new hair (follicular melanocytes; i.p. or s.c. route, result in words): almost pure white as in albino mice
- light microscopy of hair follicles: functioning melanocytes and melanin pigments (melanocytes; i.p. daily, day 10 (late anagen phase)): neither functioning melanocytes nor melanin pigments remained in the follicles
- electron microscopy of hair follicles: melanocytes and melanosomes (melanocytes; i.p. injection for 10 days): no melanocytes or melanosomes were visible
